Experimental data from patent US20250215030A1, “STAT MODULATORS AND USES THEREOF” (Recludix Pharma, Inc., priority 2022, published 2025).

Legend:
[1] = target: T1, Recombinant STAT6 protein (STAT6(W123-T658)) (Homo sapiens, UniProt P42226); assay: STAT6 Fluorescence Polarization (FP) Assay; assay type: binding; conditions: STAT6(W123-T658) 250 nM, probe 5-FAM-ApYKPFQDLI-NH2 2 nM, 45-minute incubation
T1 construct: STAT6(W123-T658)
T1 sequence (P42226 123-658): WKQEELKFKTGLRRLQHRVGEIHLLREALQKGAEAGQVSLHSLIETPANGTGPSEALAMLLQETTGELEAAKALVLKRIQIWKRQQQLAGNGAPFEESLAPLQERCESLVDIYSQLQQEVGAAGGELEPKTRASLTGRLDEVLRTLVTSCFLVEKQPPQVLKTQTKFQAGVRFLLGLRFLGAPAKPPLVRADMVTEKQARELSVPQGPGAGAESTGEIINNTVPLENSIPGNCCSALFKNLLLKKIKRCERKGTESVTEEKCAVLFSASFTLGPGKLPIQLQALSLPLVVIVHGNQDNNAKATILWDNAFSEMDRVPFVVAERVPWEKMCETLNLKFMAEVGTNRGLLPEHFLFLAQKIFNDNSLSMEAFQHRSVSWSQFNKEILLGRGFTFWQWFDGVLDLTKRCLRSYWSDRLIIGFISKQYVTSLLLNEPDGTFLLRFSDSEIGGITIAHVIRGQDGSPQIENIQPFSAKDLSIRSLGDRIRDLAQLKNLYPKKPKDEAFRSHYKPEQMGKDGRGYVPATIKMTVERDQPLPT
Method in brief: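 Competitive displacement of a fluorescent phosphotyrosine peptide (2 nM) from recombinant STAT6 W123-T658 (250 nM), 45 min at room temperature in 10 mM HEPES pH 7.4, 50 mM NaCl, 2 mM DTT. mP fitted against log compound for IC50, grouped A (≤300 nM) to D (>30 μM).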

[2] = target: T2, Recombinant STAT3 protein (STAT3(G127-I722)) (Homo sapiens, UniProt P40763); assay: STAT3 Fluorescence Polarization (FP) Assay; assay type: binding; conditions: STAT3(G127-I722) 25 nM, probe 5-FAM-GpYLPQTV-NH2 2 nM, 45-minute incubation
T2 construct: STAT3(G127-I722)
T2 sequence (P40763 127-722, species assumed): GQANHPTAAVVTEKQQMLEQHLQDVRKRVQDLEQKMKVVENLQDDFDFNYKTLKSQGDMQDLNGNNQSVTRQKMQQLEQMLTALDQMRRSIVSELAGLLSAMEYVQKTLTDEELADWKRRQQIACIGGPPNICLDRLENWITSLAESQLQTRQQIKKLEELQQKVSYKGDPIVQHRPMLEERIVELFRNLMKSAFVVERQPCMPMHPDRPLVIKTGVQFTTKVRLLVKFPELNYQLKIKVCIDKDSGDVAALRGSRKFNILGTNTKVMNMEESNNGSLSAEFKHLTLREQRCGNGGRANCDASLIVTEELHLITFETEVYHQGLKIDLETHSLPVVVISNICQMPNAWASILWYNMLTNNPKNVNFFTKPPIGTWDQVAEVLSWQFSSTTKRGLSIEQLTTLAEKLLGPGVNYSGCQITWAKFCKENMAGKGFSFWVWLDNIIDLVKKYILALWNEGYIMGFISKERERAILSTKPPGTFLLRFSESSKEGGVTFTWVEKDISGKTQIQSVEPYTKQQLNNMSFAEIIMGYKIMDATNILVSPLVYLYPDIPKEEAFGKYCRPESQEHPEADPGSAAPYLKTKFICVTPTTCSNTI
Method in brief: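 Serially diluted compounds (1% DMSO) were mixed with 2 nM fluorescent phosphotyrosine peptide and 25 nM STAT3 construct G127-I722, pH 7.4, incubated 45 min at room temperature. IC50 values from fitted polarization curves are reported as categories A (≤100 nM), B, C, D (>10 μM).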

| IC50 [1] [nM] | IC50 [2] [nM] | SMILES |
| --- | --- | --- |
| > 30000 | 100 to 1000 | C[C@]12CC[C@H](NC(=O)c3cc4cc(CP(=O)(O)O)ccc4s3)C(=O)N3[C@H](CC[C@H]3C(=O)N3CC(c4cccnc4)C3)[C@H]1C2 [Example 235, ((2-(((3S,6S,8aR,9aS,9bR)-8a-methyl-5-oxo-3-(3-(pyridin-3-yl)azetidine-1-carbonyl)decahydro-1H-cyclopropa[c]pyrrolo[1,2-a]azocin-6-yl)carbamoyl)benzo[b]thiophen-5-yl)methyl)phosphonic acid] |
| 3000 to 30000 | 100 to 1000 | COC1(c2nccn2C)CN(C(=O)[C@@H]2CC[C@@H]3C[C@@]4(C)C[C@H]4C[C@H](NC(=O)c4cc5cc(C(F)(F)P(=O)(O)O)ccc5s4)C(=O)N32)C1 [Example 237, (difluoro(2-(((3S,6S,7aS,8aR,9aR)-3-(3-methoxy-3-(1-methyl-1H-imidazol-2-yl)azetidine-1-carbonyl)-8a-methyl-5-oxodecahydro-1H-cyclopropa[d]pyrrolo[1,2-a]azocin-6-yl)carbamoyl)benzo[b]thiophen-5-yl)methyl)phosphonic acid] |
| > 30000 | 100 to 1000 | C[C@]12C[C@H]3CC[C@@H](C(=O)N4CC(c5cccnc5)C4)N3C(=O)[C@@H](NC(=O)c3cc4cc(CP(=O)(O)O)ccc4s3)C[C@H]1C2 [Example 238, ((2-(((3S,6S,7aR,8aS,9aR)-8a-methyl-5-oxo-3-(3-(pyridin-3-yl)azetidine-1-carbonyl)decahydro-1H-cyclopropa[d]pyrrolo[1,2-a]azocin-6-yl)carbamoyl)benzo[b]thiophen-5-yl)methyl)phosphonic acid] |
| > 30000 | < 100 | Cc1ccncc1C1CN(C(=O)[C@@H]2CC[C@@H]3C[C@@H]4C[C@@H]4C[C@H](NC(=O)c4cc5cc(CP(=O)(O)O)ccc5s4)C(=O)N32)C1 [Example 243, ((2-(((3S,6S,7aR,8aS,9aR)-3-(3-(4-methylpyridin-3-yl)azetidine-1-carbonyl)-5-oxodecahydro-1H-cyclopropa[d]pyrrolo[1,2-a]azocin-6-yl)carbamoyl)benzo[b]thiophen-5-yl)methyl)phosphonic acid] |
| 3000 to 30000 | 1000 to 10000 | CC(=O)N1C[C@H](NC(=O)[C@@H]2CC[C@@H]3C[C@@H]4C[C@@H]4C[C@H](NC(=O)c4cc5cc(CP(=O)(O)O)ccc5s4)C(=O)N32)[C@@H](F)C1 [Example 244, ((2-(((3S,6S,7aR,8aS,9aR)-3-(((3S,4S)-1-acetyl-4-fluoropyrrolidin-3-yl)carbamoyl)-5-oxodecahydro-1H-cyclopropa[d]pyrrolo[1,2-a]azocin-6-yl)carbamoyl)benzo[b]thiophen-5-yl)methyl)phosphonic acid] |
| 3000 to 30000 | 100 to 1000 | O=C(N[C@H]1C[C@@H]2C[C@@H]2C[C@H]2CC[C@@H](C(=O)N[C@H]3CN(c4ccccn4)C[C@@H]3F)N2C1=O)c1cc2cc(CP(=O)(O)O)ccc2s1 [Example 246, ((2-(((3S,6S,7aS,8aR,9aR)-3-(((3S,4S)-4-fluoro-1-(pyridin-2-yl)pyrrolidin-3-yl)carbamoyl)-5-oxodecahydro-1H-cyclopropa[d]pyrrolo[1,2-a]azocin-6-yl)carbamoyl)benzo[b]thiophen-5-yl)methyl)phosphonic acid] |
| > 30000 | < 100 | O=C(N[C@H]1C[C@@H]2C[C@@H]2C[C@H]2CC[C@@H](C(=O)N3CC(c4cnccc4F)C3)N2C1=O)c1cc2cc(CP(=O)(O)O)ccc2s1 [Example 247, ((2-(((3S,6S,7aS,8aR,9aR)-3-(3-(4-fluoropyridin-3-yl)azetidine-1-carbonyl)-5-oxodecahydro-1H-cyclopropa[d]pyrrolo[1,2-a]azocin-6-yl)carbamoyl)benzo[b]thiophen-5-yl)methyl)phosphonic acid] |
| 300 to 3000 | < 100 | O=C(N[C@H]1C[C@H]2C[C@H]2C[C@H]2CC[C@@H](C(=O)N3CC(c4cnccc4F)C3)N2C1=O)c1cc2cc(C(F)P(=O)(O)O)ccc2s1 (stereo partly drawn) [Example 248, (fluoro(2-(((3S,6S,7aR,8aS,9aR)-3-(3-(4-fluoropyridin-3-yl)azetidine-1-carbonyl)-5-oxodecahydro-1H-cyclopropa[d]pyrrolo[1,2-a]azocin-6-yl)carbamoyl)benzo[b]thiophen-5-yl)methyl)phosphonic acid] |
| 3000 to 30000 | < 100 | O=C(N[C@H]1C[C@H]2C[C@H]2C[C@H]2CC[C@@H](C(=O)N3CC(c4cnccc4F)C3)N2C1=O)c1cc2cc(CP(=O)(O)O)ccc2s1 [Example 250, ((2-(((3S,6S,7aR,8aS,9aR)-3-(3-(4-fluoropyridin-3-yl)azetidine-1-carbonyl)-5-oxodecahydro-1H-cyclopropa[d]pyrrolo[1,2-a]azocin-6-yl)carbamoyl)benzo[b]thiophen-5-yl)methyl)phosphonic acid] |
| > 30000 | < 100 | CCc1ccncc1C1CN(C(=O)[C@@H]2CC[C@@H]3C[C@H]4C[C@H]4C[C@H](NC(=O)c4cc5cc(CP(=O)(O)O)ccc5s4)C(=O)N32)C1 [Example 252, ((2-(((3S,6S,7aS,8aR,9aR)-3-(3-(4-ethylpyridin-3-yl)azetidine-1-carbonyl)-5-oxodecahydro-1H-cyclopropa[d]pyrrolo[1,2-a]azocin-6-yl)carbamoyl)benzo[b]thiophen-5-yl)methyl)phosphonic acid] |
| 3000 to 30000 | < 100 | O=C(N[C@H]1C[C@H]2C[C@H]2C[C@H]2CC[C@@H](C(=O)N[C@H]3CN(c4cccnc4)C[C@@H]3F)N2C1=O)c1cc2cc(CP(=O)(O)O)ccc2s1 [Example 253, ((2-(((3S,6S,7aR,8aS,9aR)-3-(((3S,4S)-4-fluoro-1-(pyridin-3-yl)pyrrolidin-3-yl)carbamoyl)-5-oxodecahydro-1H-cyclopropa[d]pyrrolo[1,2-a]azocin-6-yl)carbamoyl)benzo[b]thiophen-5-yl)methyl)phosphonic acid] |
| 300 to 3000 | 100 to 1000 | CC(=O)N1C[C@H](NC(=O)[C@@H]2CC[C@@H]3C[C@@H]4C[C@@H]4C[C@H](NC(=O)c4cc5cc(C(F)P(=O)(O)O)ccc5s4)C(=O)N32)[C@@H](F)C1 (stereo partly drawn) [Example 254, ((2-(((3S,6S,7aR,8aS,9aR)-3-(((3S,4S)-1-acetyl-4-fluoropyrrolidin-3-yl)carbamoyl)-5-oxodecahydro-1H-cyclopropa[d]pyrrolo[1,2-a]azocin-6-yl)carbamoyl)benzo[b]thiophen-5-yl)fluoromethyl)phosphonic acid] |
| 3000 to 30000 | 100 to 1000 | O=C(N[C@H]1C[C@@H]2C[C@@H]2C[C@H]2CC[C@@H](C(=O)N[C@H]3CN(c4cccnc4)C[C@@H]3F)N2C1=O)c1cc2cc(CP(=O)(O)O)ccc2s1 [Example 256, ((2-(((3S,6S,7aS,8aR,9aR)-3-(((3S,4S)-4-fluoro-1-(pyridin-3-yl)pyrrolidin-3-yl)carbamoyl)-5-oxodecahydro-1H-cyclopropa[d]pyrrolo[1,2-a]azocin-6-yl)carbamoyl)benzo[b]thiophen-5-yl)methyl)phosphonic acid] |
| 3000 to 30000 | > 10000 | O=C(N[C@H]1C[C@@H]2C[C@@H]2C[C@H]2CC[C@@H](C(=O)N[C@H]3CN(c4ncccn4)C[C@@H]3F)N2C1=O)c1cc2cc(CP(=O)(O)O)ccc2s1 [Example 257, ((2-(((3S,6S,7aS,8aR,9aR)-3-(((3S,4S)-4-fluoro-1-(pyrimidin-2-yl)pyrrolidin-3-yl)carbamoyl)-5-oxodecahydro-1H-cyclopropa[d]pyrrolo[1,2-a]azocin-6-yl)carbamoyl)benzo[b]thiophen-5-yl)methyl)phosphonic acid] |
| 300 to 3000 | < 100 | CC(=O)N1CC2C1CCN2C(=O)[C@@H]1CC[C@@H]2C[C@H]3C[C@H]3C[C@H](NC(=O)c3cc4cc(C(F)(F)P(=O)(O)O)ccc4s3)C(=O)N21 (stereo partly drawn) [Example 258, ((2-(((3S,6S,7aS,8aR,9aR)-3-(6-acetyl-2,6-diazabicyclo[3.2.0]heptane-2-carbonyl)-5-oxodecahydro-1H-cyclopropa[d]pyrrolo[1,2-a]azocin-6-yl)carbamoyl)benzo[b]thiophen-5-yl)difluoromethyl)phosphonic acid] |
| 300 to 3000 | < 100 | O=C(N[C@H]1C[C@@H]2C[C@@H]2C[C@H]2CC[C@@H](C(=O)N3CCC4C3CN4c3cccnc3)N2C1=O)c1cc2cc(C(F)(F)P(=O)(O)O)ccc2s1 (stereo partly drawn) [Example 259, (difluoro(2-(((3S,6S,7aS,8aR,9aR)-5-oxo-3-(6-(pyridin-3-yl)-2,6-diazabicyclo[3.2.0]heptane-2-carbonyl)decahydro-1H-cyclopropa[d]pyrrolo[1,2-a]azocin-6-yl)carbamoyl)benzo[b]thiophen-5-yl)methyl)phosphonic acid] |
